This passage reports GI50 and TGI results from PubChem BioAssay (NCI).

“And” between values parts separate entries of the source, which are not always exact repeats. Equal entries are not always repeated.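 Interpolation was linear, between the two tested concentrations surrounding the appropriate level; five concentrations were tested over 48 hours in 96-well plates. The concentration for 50% growth inhibition is given as GI50. TGI is the concentration that stops growth completely.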

Assay in all cases: NCI anticancer screen, dose series, 48 h
For experiment [1], the system named is SF-268 CNS.
The test system of experiment [2] is MCF7 breast.
Experiment [3] relates to CCRF-CEM leukemia.
Experiment [4] has as its system MDA-MB-231 breast.
Experiment [5] concerns PC-3 prostate.
Experiment [6] relates to EKVX NSCLC.
For experiment [7], the system named is HS 578T breast.
The subject of experiment [8] is OVCAR-3 ovarian.

As to `COc1cc(OC)cc(N(CCNC(C)C)c2ccc3ncc(-c4cnn(C)c4)nc3c2)c1`, the GI50 was 3.53 µM in experiment [1]; 10.5 µM in experiment [2]; 8.48 µM in experiment [3]; 4.63 µM in experiment [4]; 6.54 µM in experiment [5]; 13.1 µM in experiment [6]. Moreover, the results for the GI50 in experiment [7] and in experiment [8] were 1.49 µM and 5.6 µM, respectively. In addition, the TGI in experiment [1] amounted to 19 µM; in experiment [2] it was 24.3 µM; in experiment [3], 47 µM; in experiment [4], 18.4 µM; in experiment [5], 23.2 µM; in experiment [6], 27 µM. The TGI in experiment [7] stood at 6.19 µM; in experiment [8] it was 20.2 µM.

For `CCCC(=O)NC1=C(Cl)C(=O)c2ccccc2C1=O`, the TGI in experiment [1] was 30.2 µM; in experiment [2] it was 7.39 µM; in experiment [3], over 100 µM; in experiment [4] it was 17.4 µM; in experiment [5], 13.8 µM; in experiment [6] it was 16.8 µM. In addition, the TGI is over 39.9 µM in experiment [7] and 8.01 µM in experiment [8].

With `COc1cc(-c2cc3ncccc3c3nc(N)c4cccnc4c23)cc(OC)c1OC`, the GI50 in experiment [1] was 0.752 µM; in experiment [2], 0.327 µM; in experiment [3] it was 0.481 µM; in experiment [4], 1.25 µM; in experiment [5], 0.579 µM; in experiment [6], 0.763 µM. For the same compound, the results for the GI50 in experiment [7] and in experiment [8] were 0.692 µM and 0.229 µM, respectively. The TGI in experiment [1] is over 100 µM; in experiment [2], over 100 µM; in experiment [3], 30.2 µM; in experiment [4], over 100 µM; in experiment [5] it was over 100 µM; in experiment [6], 50.4 µM. Besides, the TGI in experiment [7] is over 100 µM; in experiment [8], 2.68 µM.

As to `COc1cc(/C=C2\C(=O)Nc3cc(C)c(O)cc32)cc(OC)c1OC`, the GI50 in experiment [1] was 5.34 µM; in experiment [2] it was 2.44 µM; in experiment [3], 2.89 µM; in experiment [4], 3.25 µM; in experiment [5], 4.32 µM; in experiment [6], 4.08 µM. The GI50 in experiment [7] is 2.18 µM; in experiment [8] it was 3.62 µM. Further, the TGI was 36 µM in experiment [1]; 26.4 µM in experiment [2]; 18.3 µM in experiment [3]; 23.1 µM in experiment [4]; over 100 µM in experiment [5]; 39 µM in experiment [6]. The TGI amounted to 9.93 µM in experiment [7] and 12.8 µM in experiment [8].

Regarding `Cc1cc(=O)oc2cc(OC(=O)N(C)C)c(Cl)cc12`, the TGI in experiment [1], in experiment [2], in experiment [3], in experiment [4], in experiment [5] and in experiment [6] was over 100 µM in each case. For the same compound, the TGI in experiment [7] and in experiment [8] was over 100 µM throughout.

Regarding `COc1ccc(-c2cc(=O)c3ccc(C)nc3[nH]2)cc1`, the TGI in experiment [1], in experiment [2], in experiment [3], in experiment [4], in experiment [5] and in experiment [6] was over 100 µM each time. Moreover, the TGI in experiment [7] and in experiment [8] was over 100 µM throughout. Besides, the GI50 in experiment [5] and in experiment [8] was over 100 µM in each case.

For the compound `CC(=O)O[C@H]1CC[C@@]2(C)C(=CC[C@H]3[C@@H]4CC[C@H](c5cc(C(F)(F)F)n(C(C)=O)n5)[C@@]4(C)CC[C@@H]32)C1`, the TGI in experiment [1] was over 48.1 µM; in experiment [2], 18.7 µM; in experiment [3], 9.04 µM; in experiment [4] it was 14.8 µM; in experiment [5] it was 16 µM; in experiment [6] it was 21.3 µM. Moreover, the TGI in experiment [7] was over 60.8 µM; in experiment [8], 18.7 µM.

As for `CCCNNC(=O)/C=C/c1ccc(CNCCc2c(C)[nH]c3ccccc23)cc1`, the GI50 in experiment [1] was 0.0744 µM; in experiment [2], 0.0252 µM; in experiment [3], 0.0138 µM; in experiment [4], 0.0708 µM; in experiment [5], 0.0175 µM; in experiment [6], 0.074 µM. Besides, the GI50 in experiment [7] was 0.0437 µM; in experiment [8], 0.0433 µM. The TGI in experiment [1] turned out to be 0.951 µM; in experiment [2], 3.6 µM; in experiment [3] it was 6.43 µM; in experiment [4], 3.74 µM; in experiment [5], 3.74 µM; in experiment [6], 3.73 µM. For the same compound, the TGI was 0.621 µM in experiment [7] and 0.161 µM in experiment [8].

Consider `FC(F)c1nc2ccccc2n1-c1nc(N2CCOCC2)nc(N2CCOCC2)n1`, for which the GI50 was 0.361 µM and 0.6 µM in experiment [1]; 0.136 µM and 0.129 µM in experiment [2]; 0.495 µM and 0.556 µM in experiment [3]; 0.448 µM and 2.13 µM in experiment [4]; 0.0722 µM and 0.113 µM in experiment [5]; 0.445 µM in experiment [6]. For the same compound, the GI50 is 0.143 µM and 0.0684 µM in experiment [7]; 0.204 µM and 0.281 µM in experiment [8]. In addition, the TGI in experiment [1] was over 100 µM; in experiment [2], over 62.7 µM; in experiment [3], over 100 µM; in experiment [6], 4.88 µM; in experiment [7] it was 0.995 µM and 0.773 µM; in experiment [8], 3.44 µM and 5.67 µM.

For `CCOC(=O)c1sc(-c2ccc(OS(=O)(=O)c3ccc(Br)s3)c(C=O)c2)nc1C`, the GI50 in experiment [1] was 3.01 µM; in experiment [2] it was 2.86 µM; in experiment [3], 2.36 µM; in experiment [4], 2.75 µM; in experiment [5], 2.97 µM; in experiment [6] it was 14.3 µM. Moreover, the GI50 in experiment [7] is 10.6 µM; in experiment [8], 2.48 µM. The TGI in experiment [1] amounted to 13.2 µM; in experiment [2], 8.97 µM; in experiment [3] it was 9.16 µM; in experiment [4], 10.1 µM; in experiment [5], 11 µM; in experiment [6] it was 54.1 µM. In addition, the TGI was 36.3 µM in experiment [7] and 6.71 µM in experiment [8].

With `COc1cccc(-c2nc3sccn3c2-c2ccnc(NCCCNS(=O)(=O)c3cccc(F)c3)c2)c1`, the GI50 in experiment [1] was 3.26 µM; in experiment [2], 2.49 µM; in experiment [3], 2.26 µM; in experiment [4], 3.62 µM; in experiment [5], 2.12 µM; in experiment [6] it was 2.99 µM. Also, the GI50 in experiment [7] was 3 µM; in experiment [8], 3.06 µM. In addition, the TGI was over 100 µM in experiment [1]; over 100 µM in experiment [2]; over 100 µM in experiment [3]; over 100 µM in experiment [4]; 11.6 µM in experiment [5]; over 100 µM in experiment [6]. The TGI in experiment [7] and in experiment [8] was over 100 µM in each case.
